Here are results for 1 compound from patent US20120010229A1, “THERAPEUTIC REGIMENS FOR HEDGEHOG-ASSOCIATED CANCERS” (priority 2010, published 2012).

pIC50: −log10 of the molar value.

One data set addresses T1, D473H SMO mutant (Homo sapiens, UniProt Q99835, D473H).
T1 construct: expressed in transfected cells; host or cells: C3H10T1/2 cells (ATCC CCL-226), mouse
Nature of the data set: Gli-luciferase reporter assay, C3H10T1/2 cells transfected with D473H SMO. In kind it is cell-based, mouse. As to the method: Wild type human SMO was subcloned into pcDNA3.1 from an expression construct in pCMV6 (Origene #SC122724). D473H SMO was then generated by site-directed mutagenesis using the Stratagene QuikChange kit (Agilent #200519) and sequence verified.
Gli-Luciferase reporter assays were performed as described. (Yauch et al. (2009) Science 326: 572-574) Briefly, C3H10 T1/2 cells (ATCC, #CCL-226) were plated in six-well plates at 1×10 to 5th cells per well in BME (Gibco #21010) with 10% FBS (Hyclone #SH30070.03), 2 mM Glutamine (Gibco #25030) and 50 units penicillin/50 ug streptomycin (Gibco #15140). The next morning, cells were transfected with 400 ng SMO expression construct, 400 ng 8× Gli-Luc, and 200 ng pRL-TK per well with GeneJuice transfection reagent (Novagen #70967). Cells in each well were lifted six hours later and replated into four wells of a 12 well plate and allowed to attach overnight. Medium was then changed to low (0.5%) serum and compounds were added in quadruplicate in a range of concentrations. After a 48 hour incubation, firefly and renilla luciferase were assayed using the Promega Dual-Glo Luciferase Assay System (Promega #E2940) and ratios were used to determine percent of control using Prism graphing software.
In general terms: Reporter assays use an easily measured gene product as a stand-in for the process of interest.

In data set [1] the test system is L3.6pl P-lucky liver metastasis. Nature of the data set: L3.6pl liver metastasis model, Study #2. The format is in vivo. As for the experimental part:
Model Procedure: Animals were anesthetized and prepared for surgery. The animal's spleen was exposed and 100 μl (1 million cells) of the L3.6pl single cell suspension was injected directly in the spleen towards the splenic vein (intra splenic injection). Once the injection was complete, the splenic artery and splenic vein were ligated, the spleen was excised, and the animals' wounds were closed. Post-op care and analgesia was given for 4 consecutive days and animals were monitored for recovery.
Prior to the procedure listed above 48 animals were separated into […].
Animals in group 2 (Day-of-Treatment), received IPI-926 every-other-day beginning on the day of the intra splenic injection procedure, continuing until the study end.
Animals in group 3 (Pre-Treatment Day −2), received IPI-926 every-other-day starting two days prior to the day of the intra splenic injection procedure, continuing until the study end.
Animals in group 4 (Pre-Treatment Day −7), received IPI-926 every-other-day starting seven days prior to the day of the intra splenic injection procedure, continuing until the study end.
Animals in group 5 (Pre-Treatment Day −14—treatment stopped on Day 0), received IPI-926 every-other-day starting fourteen days prior to the day of the intra splenic injection procedure and ending on the day of implant.
Animals in group 6 (Pre-Treatment Day −14), received IPI-926 every-other-day starting fourteen days prior to the day of the intra splenic injection procedure, continuing until the study end.
Results Procedure: Animals were injected with 10 ml/kg of luciferin concentrated at […] via I.P. injection. This luciferin binds to the L3.6pl P-Lucky cells injected on day 0. Utilizing Calipers Xenogen© machine, this cell-luciferin association emits bioluminescence that can be read and quantified.
Results: FIGS. 12A-12B represent the results from the quantification, normalized on each day to the average of vehicle treated animals. This normalization was done using the formula: (1/(average flux of vehicle animals/average flux of group X (group being compared))).

Another data set has as its target Pgp (Homo sapiens, UniProt P08183). The data set can be described thus: Pgp substrate status. The format is in vitro ADME.
The subject of data set [2] is LuCaP35V (Castration Resistant) primary prostate cancer. Nature of the data set: LuCaP35V castration resistant primary prostate cancer model. The format is in vivo. An excerpt: The effects of IPI-926 were examined following docetaxel chemotherapy in a model of castration resistant prostate cancer. Prostate cancer is known to be a highly desmoplastic cancer, and one that preferentially metastasizes to bone. Sonic hedgehog ligand is expressed in clinical specimens and primary xenograft models. […] FIG. 7 summarizes the effects of IPI-926 in LuCaP35V (Castration Resistant) primary prostate cancer model. Days of docetaxel and IPI-926 administration are indicated by the arrowheads at the indicated days post-implant. The following samples were tested: Vehicle control (administered orally once a day), 40 mg/kg of IPI-926 (administered orally once a day), docetaxel (administered intravenously Q14D for 28 days), or docetaxel (administered intravenously Q14D for 28 days) followed by 40 mg/kg of IPI-926, as shown in FIG. 7. […] Thus, IPI-926 can be useful as maintenance therapy in prostate cancer.

Data set [3] concerns Ptc^C/C medulloblastoma flank allografts. The data set can be described thus: Ptc^C/C medulloblastoma flank allografts (tumor take and response). The format is in vivo, mouse. As for the experimental part:
Animal experiments were performed in accordance with the NIH Guide for the Care and Use of Experimental Animals with approval from the Institutional Animal Care and Use Committee. Freshly excised medulloblastoma tumors from symptomatic Ptc^C/C mice were placed in cooled phosphate buffered saline (PBS), minced with a scalpel, and filtered through a 100 μm cell strainer (BD Bioscience, San Jose, Calif.). The cells were pelleted at 1000 rpm for 5 minutes at 4° C., and resuspended in equal parts DMEM and Matrigel (BD Biosciences, San Diego, Calif.). Recipient mice (wild type littermates) were anesthetized with isoflurane and a suspension of 1×10^6 cells in total volume of 200 μL was injected subcutaneously into the flank using a 30G needle. Tumor growth was measured in two dimensions using digital calipers every 24-48 hours, and the tumor volumes were calculated according to the following formula: 0.5×length×width^2, with width being the smaller of the two dimensions measured. Tumors greater than 2.5 cm in length were harvested and either snap-frozen or fixed in 10% formalin.
To confirm this, aliquots of 1 million cells from the cerebellar tumors of 9 donor Ptc^C/C mice were transplanted to the flanks of 110 recipients.
Recipient mice bearing drug-naïve and IPI-926 treated allograft tumors were then treated with daily IPI-926 (20 mg/kg) and tumor growth was monitored via caliper measurements. […] When tumor volumes reached […], recipient mice then received either daily IPI-926 (20 mg/kg) or vehicle treatment, and the growth of flank allografts was monitored over a nine-week period. […] Half of the allograft mice from drug-treated donors were taken off drug after five weeks of IPI-926 treatment, and the other half received continuous IPI-926 for the nine-week study period. Mice from both groups were monitored for the entire 9-week period.

T1 sequence (Q99835 28-787 D473H): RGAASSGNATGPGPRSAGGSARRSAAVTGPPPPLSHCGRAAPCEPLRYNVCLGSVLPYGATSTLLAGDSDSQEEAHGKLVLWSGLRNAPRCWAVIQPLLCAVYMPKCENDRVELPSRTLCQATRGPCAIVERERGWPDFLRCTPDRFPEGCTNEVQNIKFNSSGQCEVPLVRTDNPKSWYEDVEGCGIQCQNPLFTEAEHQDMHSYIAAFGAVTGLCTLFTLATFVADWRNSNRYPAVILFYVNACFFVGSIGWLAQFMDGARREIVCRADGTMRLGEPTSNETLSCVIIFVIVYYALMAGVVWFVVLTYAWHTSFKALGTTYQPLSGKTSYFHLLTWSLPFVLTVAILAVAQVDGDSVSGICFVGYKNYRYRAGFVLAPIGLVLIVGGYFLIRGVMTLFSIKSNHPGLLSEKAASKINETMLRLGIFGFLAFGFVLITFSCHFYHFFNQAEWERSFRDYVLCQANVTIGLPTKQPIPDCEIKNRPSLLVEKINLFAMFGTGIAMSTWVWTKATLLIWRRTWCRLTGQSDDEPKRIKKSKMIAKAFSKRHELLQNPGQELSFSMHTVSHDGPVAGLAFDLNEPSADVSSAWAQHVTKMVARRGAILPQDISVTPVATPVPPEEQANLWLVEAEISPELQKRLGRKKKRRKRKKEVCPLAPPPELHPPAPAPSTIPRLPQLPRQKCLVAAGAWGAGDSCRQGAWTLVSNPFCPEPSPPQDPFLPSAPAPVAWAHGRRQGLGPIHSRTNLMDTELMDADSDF
Chain of Pgp (P08183 whole entry): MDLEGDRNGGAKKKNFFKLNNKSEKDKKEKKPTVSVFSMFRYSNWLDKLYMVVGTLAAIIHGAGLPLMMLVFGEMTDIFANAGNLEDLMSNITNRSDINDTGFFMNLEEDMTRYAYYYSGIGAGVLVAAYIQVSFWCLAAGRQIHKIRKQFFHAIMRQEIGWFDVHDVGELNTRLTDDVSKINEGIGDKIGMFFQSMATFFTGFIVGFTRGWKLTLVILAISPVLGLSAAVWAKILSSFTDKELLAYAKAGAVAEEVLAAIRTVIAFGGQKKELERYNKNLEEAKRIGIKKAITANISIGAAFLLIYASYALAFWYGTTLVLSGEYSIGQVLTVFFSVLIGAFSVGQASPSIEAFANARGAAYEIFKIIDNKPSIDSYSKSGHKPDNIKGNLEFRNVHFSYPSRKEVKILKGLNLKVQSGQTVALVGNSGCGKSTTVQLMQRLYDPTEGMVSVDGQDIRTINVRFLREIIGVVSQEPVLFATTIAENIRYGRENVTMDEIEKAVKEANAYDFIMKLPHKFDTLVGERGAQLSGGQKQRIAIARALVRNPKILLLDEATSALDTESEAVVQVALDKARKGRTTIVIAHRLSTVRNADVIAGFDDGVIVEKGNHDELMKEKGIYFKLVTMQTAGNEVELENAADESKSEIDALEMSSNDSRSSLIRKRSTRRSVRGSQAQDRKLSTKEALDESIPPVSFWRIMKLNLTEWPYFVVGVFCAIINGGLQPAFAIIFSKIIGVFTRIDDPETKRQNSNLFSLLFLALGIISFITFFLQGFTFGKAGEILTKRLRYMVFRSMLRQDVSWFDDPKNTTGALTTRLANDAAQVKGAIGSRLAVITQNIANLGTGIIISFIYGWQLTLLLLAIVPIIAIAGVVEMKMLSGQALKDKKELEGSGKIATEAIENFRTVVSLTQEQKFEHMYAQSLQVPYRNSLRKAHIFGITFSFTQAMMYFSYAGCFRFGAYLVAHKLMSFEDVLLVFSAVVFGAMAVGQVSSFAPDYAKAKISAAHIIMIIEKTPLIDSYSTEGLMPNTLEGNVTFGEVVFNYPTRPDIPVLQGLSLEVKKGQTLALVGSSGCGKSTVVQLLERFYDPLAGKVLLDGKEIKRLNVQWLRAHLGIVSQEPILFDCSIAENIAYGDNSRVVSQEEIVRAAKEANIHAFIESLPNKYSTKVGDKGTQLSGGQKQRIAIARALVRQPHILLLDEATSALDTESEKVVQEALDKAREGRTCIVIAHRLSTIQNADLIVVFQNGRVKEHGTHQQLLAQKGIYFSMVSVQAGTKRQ

A word on the pIC50: it is the negative decadic logarithm of the IC50, by convention in mol/L. A low value points to a high IC50. Turning to `CC1=C2C[C@H]3[C@@H](CC[C@@H]4C[C@H](NS(C)(=O)=O)CC[C@@]43C)[C@@H]2CC[C@@]2(C1)O[C@@H]1C[C@H](C)CN[C@H]1[C@H]2C` [IPI-926], at D473H SMO mutant, the pIC50 is 6.61. The “take or growth of metastasis within the liver” value in data set [1] (2 days of pre treatment) and in data set [1] (day of implant treatment) was “no effect” in each case. For the same compound, the “overall survival vs vehicle” value is given as “survival benefit” in data set [1] (7 days of pre-treatment); “survival benefit” in data set [1] (14 days of pre-treatment then stopping); “limited survival benefits” in data set [1] (pre-treatment beginning at day -2); “no benefit” in data set [1] (treatment starting on the day of implant, day 0). Moreover, the “reduction in luminescence below vehicle” value in data set [1] (14 days prior to implant then stopping dosing, early time point) was “roughly 15 fold”. Also, the “decrease in bioluminescence compared to vehicle” value in data set [1] (14 days prior to implant then stopping dosing, latest time point) is reported as 5 fold. Besides, in data set [1] (treatment from 7 days prior to implant), the “reduction in bioluminescence below vehicle” value is 10-15 fold. Moreover, in data set [1] (treatment from 14 days prior to implant), the “increase of overall survival rate, factor” value is not below 2. Further, the “reduction in flux (bioluminescence) below vehicle” value in data set [1] (treatment from 14 days prior to implant, continued) is 20-25 fold. At Pgp, the Pgp substrate entry was “Pgp substrate”. Further, the “tumor volume, IPI-926 alone” value in data set [2] (40 mg/kg orally once a day) was “marked increase in tumor volume”. The “tumor volume after cessation of docetaxel chemotherapy” value in data set [2] (docetaxel IV Q14D for 28 days followed by 40 mg/kg IPI-926) is on record as “prolonged duration of the tumor inhibition”. Moreover, in data set [3] (allografts from drug-treated donors, continuous IPI-926 for nine weeks), the “tumor re-growth on continuous IPI-926” value is on record as “no tumors re-grew”. In addition, in data set [3] (allografts from drug-treated donors, off drug after five weeks, monitored 9 weeks), the “tumors that re-grew after going off drug” value was 1 of 6. Also, the “allograft tumors undetectable by caliper measurements” value in data set [3] (daily IP 20 mg/kg, both allograft groups (drug-naive and IPI-926 treated donors)) came to 100%. In addition, the “flank tumor take in recipients (tumor initiating capacity)” value in data set [3] (donors treated daily 20 mg/kg for 6 weeks before transplantation, drug-naive donors 40 of the 110, P=0.017) is 9 of 51. In data set [3] (flank allografts from drug-naive donors, 9-week trial), the “tumors that progressed while on therapy” value is “Forty percent”.
